Measurements from US7408024B2, “Somatostatin antagonists” (The Administrators of the Tulane Educational Fund, priority 2001, dated 2008).
Where a SMILES comes first, the peptide text is derived from it. Bridges are numbered along the chain shown (N, C = ends). [ ]: non-standard residue; d: D form. Phe(4-Cl) = N[C@@H](Cc1ccc(Cl)cc1)C(=O)O; dNMeW = CN[C@H](Cc1c[nH]c2ccccc12)C(=O)O; Dip = N[C@H](C(=O)O)C(c1ccccc1)c1ccccc1; 2Nal = N[C@@H](Cc1ccc2ccccc2c1)C(=O)O; NMeT = CN[C@H](C(=O)O)[C@@H](C)O; 3Pal = N[C@@H](Cc1cccnc1)C(=O)O; NMeK = CN[C@@H](CCCCN)C(=O)O; dNMeC = CN[C@H](CS)C(=O)O

Experiments:
hsst1 = target: T1, hsst1 (Homo sapiens, UniProt P30872); assay: Radioligand binding, cloned human sst1 receptor (CHO-K1 membranes); settings: [125I]Tyr11-SRIF, CHO-K1 cell membranes; single values = one binding experiment; read-out: K1 ± SEM hsst1
T1 construct: each containing the entire coding region of the full-length receptors; expressed in transfected cells
From the text: (§1) The genomic clones containing the human somatostatin receptors (hsstr1-5) (Yamada, Y., et al. al., Proc. Natl. Acad. Sci. USA. 1992, 89, 251-255; Yasuda, K., et al., J. Biol. Chem. 1992, 267, 20422-20428; Yamada, Y., et al., Mol. Pharmacol. 1992, 42, 2136-2142; Rohrer, L., et al., Proc. Natl. Acad. Sci. USA. 1993, 90, 4196-4200.), were kindly provided by Dr. Graeme I. Bell (University of Chicago). The hsstr1, hsstr2, hsstr3, hsstr4 and hsstr5 cDNAs were isolated as a 1.5-kb PstI-XmnI fragment, 1.7-kb BamHI-HindIII fragment, 2.0-kb NcoI-HindIII fragment, 1.4-kb NheI-NdeI fragment, and a 1.2-kb HindIII-XbaI fragment, respectively, each containing the entire coding region of the full-length receptors. These fragments were independently subdloned into the corresponding restriction endonuclease sites in the mammalian expression vector pCMV5, downstream from the human cytomegalovirus (CMV) promoter, to produce the expression plasmids pCMV5/hsstr1, pCMV5/hsstr2, pCMV5/hsstr3, pCMV5/hsstr4 and pCMV5/hsstr5. For transfection into CHO-K1 cells, a plasmid, pRSV-neo (American Type Culture Collection, Rockville, Md.), carrying the neomycin mammalian cell selectable marker was added.
(§2) Transfections were performed by the calcium phosphate method. CHO-K1 cells are maintained in α-minimum essential medium (α-MEM; Gibco) supplemented with 10% fetal calf serum and transfected with each of the expression plasmids using calcium phosphate precipitation. Clones that had inherited the expression plasmid were selected in α-MEM supplemented with 500 μg mL^−1 of geneticin (G418; Gibco). Independent CHO-K1 clones were picked by glass-ring cloning and expanded in culture in the selective media. Membranes were prepared from the isolated clones and hsstr expression was initially assessed for binding with [^125I]Tyr^11-SRIF and [^125]IMK-678 (for sstr2).
(§3) Cell membranes of the 5 receptor types were obtained from homogenates (Polytron setting 6, 15 sec) of the corresponding CHO-K1 cells, in ice-cold Tris-HCl (50 mM) and centrifuged (39000 g, 10 min×2), with an intermediate resuspension in fresh buffer. The final pellets are resuspended in Tris-HCl (10 mM) for assay. Aliquots of the membranes are incubated (30 min at 37° C.) with 0.05 nM [^125I]Tyr^11-SRIF (types 1,3,4,5) or [^125I]MK-678 (type 2) in 50 mM HEPES (pH 7.4) containing BSA (10 mg mL^−1); MgCl2 (5 mM), Trasylol (200 kIU mL^−1), bacitracin (0.02 mg mL^−1), and phenylmethanesulfonyl fluoride (0.02 mg mL^−1). The final assay volume is 0.3 mL and incubations are terminated by rapid filtration through GF/C filters pre-soaked in 0.3% poly(ethylenimine) using a Brandel rapid filtration module. Each tube and filter is then washed with aliquots of cold buffer (3×5 mL).
(§4) Specific binding is. defined as the total radioligand bound minus that bound in the presence of 1.0 μM SRIF.

hsst2 = target: T2, hsst2 (Homo sapiens, UniProt P30874); assay: Radioligand binding, cloned human sst2 receptor (CHO-K1 membranes); settings: [125I]MK-678, CHO-K1 cell membranes; single values = one binding experiment; read-out: K1 ± SEM hsst2
T2 construct: each containing the entire coding region of the full-length receptors; expressed in transfected cells
From the text: as §1, §2, §3, §4

hsst3 = target: T3, hsst3 (Homo sapiens, UniProt P32745); assay: Radioligand binding, cloned human sst3 receptor (CHO-K1 membranes); settings: [125I]Tyr11-SRIF, CHO-K1 cell membranes; single values = one binding experiment; read-out: K1 ± SEM hsst3
T3 construct: each containing the entire coding region of the full-length receptors; expressed in transfected cells
From the text: as §1, §2, §3, §4

hsst4 = target: T4, hsst4 (Homo sapiens, UniProt P31391); assay: Radioligand binding, cloned human sst4 receptor (CHO-K1 membranes); settings: [125I]Tyr11-SRIF, CHO-K1 cell membranes; single values = one binding experiment; read-out: K1 ± SEM hsst4
T4 construct: each containing the entire coding region of the full-length receptors; expressed in transfected cells
From the text: as §1, §2, §3, §4

hsst5 = target: T5, hsst5 (Homo sapiens, UniProt P35346); assay: Radioligand binding, cloned human sst5 receptor (CHO-K1 membranes); settings: [125I]Tyr11-SRIF, CHO-K1 cell membranes; single values = one binding experiment; read-out: K1 ± SEM hsst5
T5 construct: each containing the entire coding region of the full-length receptors; expressed in transfected cells
From the text: as §1, §2, §3, §4

[1] = tested on: SRIF inhibition of GH release in rat anterior pituitary cells; assay type: cell-based
Experimental: Anterior pituitaries from adult male rats were collected and dispersed by a previously described trypsin/DNase method. (Murphy, W. A.; Taylor, J.; Moreau, J.-P. and Coy, D. […] Sigma) and nystatin (10,000 U mL^−1; Gibco). The cells were randomly plated at a density of approximately 200,000 cells/well (Costar cluster 24; Rochester Scientific Co., Rochester, N.Y.). The plated cells were maintained in the above Dulbecco's medium in a humidified atmosphere of 95% air/5% CO2 at 37° C. for 4-6 days. In preparation for a hormone challenge, the cells were washed with medium 199 (Gibco, 3×1 mL). […] Sigma Chemical Co.). […] After 3 h incubation in an air/carbon dioxide atmosphere (95/5%, 3 h at 37° C.), the medium was removed and stored at −20° C. until assayed for hormone content. Growth hormone in media was measured by a standard double antibody RIA using components generously supplied by Dr. A. F. Parlow at the National Hormone and Pituitary Program (NHHP) Torrance, Calif.

T5 sequence (P35346 whole entry): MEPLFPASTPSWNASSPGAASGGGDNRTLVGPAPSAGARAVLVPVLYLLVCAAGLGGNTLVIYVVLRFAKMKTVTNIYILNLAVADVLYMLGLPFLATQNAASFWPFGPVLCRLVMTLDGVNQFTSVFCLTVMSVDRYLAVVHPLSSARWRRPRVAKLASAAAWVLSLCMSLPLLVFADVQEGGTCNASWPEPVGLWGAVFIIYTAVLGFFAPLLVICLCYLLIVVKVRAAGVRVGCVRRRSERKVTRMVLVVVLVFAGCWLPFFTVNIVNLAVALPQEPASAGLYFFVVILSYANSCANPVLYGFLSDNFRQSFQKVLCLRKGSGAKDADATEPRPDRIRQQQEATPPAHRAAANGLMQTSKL
T3 sequence (P32745 whole entry): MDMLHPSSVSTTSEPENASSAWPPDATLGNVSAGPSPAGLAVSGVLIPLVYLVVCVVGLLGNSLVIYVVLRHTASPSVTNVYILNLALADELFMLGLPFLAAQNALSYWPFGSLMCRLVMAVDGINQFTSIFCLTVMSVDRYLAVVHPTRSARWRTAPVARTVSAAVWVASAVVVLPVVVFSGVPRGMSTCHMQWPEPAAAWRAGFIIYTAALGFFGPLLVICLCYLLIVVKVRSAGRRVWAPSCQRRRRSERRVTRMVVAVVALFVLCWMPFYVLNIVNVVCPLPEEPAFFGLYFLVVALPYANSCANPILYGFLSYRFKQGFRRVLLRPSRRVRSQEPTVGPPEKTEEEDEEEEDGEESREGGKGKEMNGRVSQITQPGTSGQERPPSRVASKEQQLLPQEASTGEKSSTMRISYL
T1 sequence (P30872 whole entry): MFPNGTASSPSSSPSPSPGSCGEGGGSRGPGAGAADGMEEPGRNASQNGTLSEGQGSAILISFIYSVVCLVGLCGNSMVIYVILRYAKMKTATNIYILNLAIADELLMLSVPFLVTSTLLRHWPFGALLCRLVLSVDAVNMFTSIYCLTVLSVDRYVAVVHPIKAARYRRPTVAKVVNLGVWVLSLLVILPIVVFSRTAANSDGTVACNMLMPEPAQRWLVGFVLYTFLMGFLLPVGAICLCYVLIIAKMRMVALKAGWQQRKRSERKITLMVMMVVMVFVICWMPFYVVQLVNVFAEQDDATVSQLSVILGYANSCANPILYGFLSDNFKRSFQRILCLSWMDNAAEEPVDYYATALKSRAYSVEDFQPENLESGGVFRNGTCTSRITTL
T4 sequence (P31391 whole entry): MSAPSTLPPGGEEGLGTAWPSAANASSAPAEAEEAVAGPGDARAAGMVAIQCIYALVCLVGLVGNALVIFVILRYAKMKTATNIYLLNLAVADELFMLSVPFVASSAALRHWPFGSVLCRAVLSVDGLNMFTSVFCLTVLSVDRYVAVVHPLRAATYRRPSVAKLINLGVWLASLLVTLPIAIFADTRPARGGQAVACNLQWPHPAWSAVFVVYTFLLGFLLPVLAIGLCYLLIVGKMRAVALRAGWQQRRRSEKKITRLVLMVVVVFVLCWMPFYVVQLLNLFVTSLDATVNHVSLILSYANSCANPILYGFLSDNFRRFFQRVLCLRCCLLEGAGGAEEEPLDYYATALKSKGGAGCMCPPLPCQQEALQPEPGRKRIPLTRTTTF
T2 sequence (P30874 whole entry): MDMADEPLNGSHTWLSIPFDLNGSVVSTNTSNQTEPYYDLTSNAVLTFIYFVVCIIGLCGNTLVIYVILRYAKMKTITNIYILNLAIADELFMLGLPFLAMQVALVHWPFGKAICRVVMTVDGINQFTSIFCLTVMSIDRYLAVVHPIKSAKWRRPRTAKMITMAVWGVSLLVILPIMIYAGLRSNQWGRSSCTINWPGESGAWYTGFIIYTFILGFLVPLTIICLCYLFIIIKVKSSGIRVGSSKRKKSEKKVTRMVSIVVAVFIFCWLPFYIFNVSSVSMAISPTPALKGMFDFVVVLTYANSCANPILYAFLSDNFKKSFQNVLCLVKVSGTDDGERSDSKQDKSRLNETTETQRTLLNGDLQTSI

Row | Structure (SMILES) | Ki (hsst1) [nM] | Ki (hsst2) [nM] | Ki (hsst3) [nM] | Ki (hsst4) [nM] | Ki (hsst5) [nM] | IC50 [1] [nM]
1 | CNC(=O)[C@H](Cc1ccc2ccccc2c1)NC(=O)[C@@H]1CSSC[C@@H](N(C)C(=O)[C@@H](N)Cc2ccc(Cl)cc2)C(=O)N[C@@H](Cc2cccnc2)C(=O)N[C@H](Cc2c[nH]c3ccccc23)C(=O)N[C@@H](CCCCN)C(=O)N[C@@H]([C@@H](C)O)C(=O)N1 [Peptide 2, Cpa-cyclo(NmeDCys-3-Pal-DTrp-Lys-Thr-Cys)-2-Nal-NHMe] (H-[Phe(4-Cl)][dNMeC][3Pal][dW]KTC[2Nal]-NHMe; disulfide 2-7) | 1000 | 89 ± 8 | 576 ± 47 | 1000 | 106 ± 36 | 
2 | C[C@@H](O)[C@H]1C(=O)N[C@H](C(=O)N[C@@H](Cc2ccc3ccccc3c2)C(N)=O)CSSC[C@@H](NC(=O)[C@@H](N)Cc2ccc(Cl)cc2)C(=O)N[C@@H](Cc2cccnc2)C(=O)N[C@H](Cc2c[nH]c3ccccc23)C(=O)N[C@@H](CCCCN)C(=O)N1C [Peptide 6, Cpa-cyclo(DCys-3-Pal-DTrp-Lys-NMeThr-Cys)-2-Nal-NH2] (H-[Phe(4-Cl)][dC][3Pal][dW]K[NMeT]C[2Nal]-NH2; disulfide 2-7) | 395 ± 202 | 1000 | 315 ± 12.5 | 1000 |  | 
3 | C[C@@H](O)[C@@H]1NC(=O)[C@H](CCCCN)N(C)C(=O)[C@@H](Cc2c[nH]c3ccccc23)N(C)C(=O)[C@H](Cc2cccnc2)NC(=O)[C@H](NC(=O)[C@@H](N)Cc2ccc(Cl)cc2)CSSC[C@@H](C(=O)N[C@@H](Cc2ccc3ccccc3c2)C(N)=O)NC1=O [Peptide 11, Cpa-cyclo(DCys-3-Pal-NMeDTrp-NMeLys-Thr-Cys)-2-Nal-NH2] (H-[Phe(4-Cl)][dC][3Pal][dNMeW][NMeK]TC[2Nal]-NH2; disulfide 2-7) | 1000 | 9.33 ± 0.62 | 140 ± 10.4 | 1000 | 112 ± 19 | 2.5 ± 0.2
4 | CNC(=O)[C@@H](NC(=O)[C@@H]1CSSC[C@@H](N(C)C(=O)[C@@H](N)Cc2ccc(Cl)cc2)C(=O)N[C@@H](Cc2cccnc2)C(=O)N[C@H](Cc2c[nH]c3ccccc23)C(=O)N[C@@H](CCCCN)C(=O)N[C@@H]([C@@H](C)O)C(=O)N1)C(c1ccccc1)c1ccccc1 [Peptide 10, Cpa-cyclo(NMeDCys-3-Pal-DTrp-Lys-Thr-Cys)-Dip-NHMe] (H-[Phe(4-Cl)][dNMeC][3Pal][dW]KTC[Dip]-NHMe; disulfide 2-7) | 1000 | 117 ± 24.6 | 584 ± 305 | 1000 | 766 ± 110 | 
5 | C[C@@H](O)[C@@H]1NC(=O)[C@H](CCCCN)N(C)C(=O)[C@@H](Cc2c[nH]c3ccccc23)NC(=O)[C@H](Cc2cccnc2)NC(=O)[C@H](NC(=O)[C@@H](N)Cc2ccc3ccccc3c2)CSSC[C@@H](C(=O)N[C@H](Cc2c[nH]c3ccccc23)C(N)=O)NC1=O [Peptide 15, Nal-cyclo(DCys-3-Pal-DTrp-NMeLys-Thr-Cys)-DTrp-NH2] (H-[2Nal][dC][3Pal][dW][NMeK]TC[dW]-NH2; disulfide 2-7) | 1000 | 27.3 ± 1.45 |  | 1000 | 176 ± 65.1 | 
6 | CN[C@@H](Cc1ccc(Cl)cc1)C(=O)N[C@@H]1CSSC[C@@H](C(=O)N[C@@H](Cc2ccc3ccccc3c2)C(N)=O)NC(=O)[C@H]([C@@H](C)O)NC(=O)[C@H](CCCCN)NC(=O)[C@@H](Cc2c[nH]c3ccccc23)NC(=O)[C@H](Cc2cccnc2)NC1=O [Peptide 1, NmeCpa-cyclo(DCys-3-Pal-DTrp-Lys-Thr-Cys)-2-Nal-NH2] | 1000 | 36 ± 7.6 | 330 ± 126 | 1000 | 40.1 ± 18.8 | 7.8 ± 2.7
7 | C[C@@H](O)[C@@H]1NC(=O)[C@H](CCCCN)N(C)C(=O)[C@@H](Cc2c[nH]c3ccccc23)NC(=O)[C@H](Cc2ccc(O)cc2)NC(=O)[C@H](NC(=O)[C@@H](N)Cc2ccc(Cl)cc2)CSSC[C@@H](C(=O)N[C@@H](Cc2ccc3ccccc3c2)C(N)=O)NC1=O [Peptide 12, Cpa-cyclo(DCys-Tyr-DTrp-NMeLys-Thr-Cys)-2-Nal-NH2] (H-[Phe(4-Cl)][dC]Y[dW][NMeK]TC[2Nal]-NH2; disulfide 2-7) | 1000 | 5.51 ± 1.85 | 115 ± 16.9 | 1000 |  | 0.53 ± 0.17
